Test results: patent US9186390B2, “Methods and uses of TIE2 binding and/or activating agents” (Sunnybrook Health Sciences Center, priority 2010, dated 2015)

System: Eo/B progenitors
Assay: Modulation of eosinophil/basophil progenitors (Eo/B-CFU)
Assay type: cell-based
Details: preliminary data
Experimental: Thus, Eo/B from mice and healthy donors are isolated. Eosinophils from the periphery or bone marrow are enriched by magnetic bead sorting using anti CD125 (IL-5Ra) conjugated to magnetic particles. These cells preparations are stimulated with either recombinant Ang1 or Vasculotide and different cellular parameters are measured, including cellular growth, apoptosis, migration and Tie2-specific cellular signaling.
To examine the effect of Vasculotide on Eo/B progenitors, bone marrow colony assays are performed. Human bone marrow preparations are purchased from Stem Cell Technologies (Vancouver, BC) and murine bone marrow are obtained by flushing femurs of normal mice. Non-adherent mononuclear cells are cultured in MethoCult supplemented with IL-5 to optimize for eosinophil/basophil colony formation (Eo/B-CFU). […] The appearance of Eo/B-CFU is measured.
Eo/Bs and their progenitors are harvested from Vasculotide treated asthmatic animals from the periphery or bone marrow. In order to establish an Eo/B cellular profile treated and non-treated animals are harvested on week 1, 2, 4 and 6 and the number of Eo/Bs in the periphery, bone marrow and progenitors is determined. The number of peripheral and bone marrow eosinophils is determined by flow cytometry analysis using Ly6G, CD11b, IgE and free FITC markers. Eo/B progenitors in the bone marrow are measured by Eo/B-CFU assay.

Vasculotide: Modified T7 peptide (CHHHRHSF, SEQ ID NO:2) conjugated to 10 kDa tetrameric polyethylene glycol-maleimide; Tie2 binding peptide mimetic
effect on Eo/B progenitors: impacts the Eo/B progenitors directly
